Reference: patent US20210347794A1, “Phosphate Derivatives of Indole Compounds and Their Use” (ARIAGEN, INC., priority 2018, published 2021)

Experiments:
[1] = In vivo pharmacokinetic study in rats, IV or oral dose of ARI-160
Description: This example describes pharmacokinetic (PK) studies of ARI-158 and ARI-160 in dogs and rats, respectively. In the present studies, the test compounds were given to groups of male beagle dogs and rats (N=3 in each group) intravenously (IV) at 2 mg/kg or orally (PO) at 10 mg/kg. IV doses were formulated in DMSO, while PO doses were formulated in a 50/50 mixture of PEG400 and Tween 80. Blood samples were collected at pre-dose and over a period of 24 hours post-dose. Plasma concentrations of the indolo-phosphoramidate compounds were determined by HPLC.

[2] = test system: EMT-6 cancer cells; experiment: Anti-tumor activity in EMT-6 syngeneic mouse tumor model; assay type: in vivo; settings: 80 mpk
Description: This example describes in vivo studies that evaluated the anti-cancer efficacy of ARI-158 and ARI-160 in syngeneic mouse tumor models. Mice implanted subcutaneously with EMT-6 cancer cells were treated with ARI-158 and ARI-160, or vehicle controls, as described below.
A monolayer culture of tumor cells was maintained in vitro in DMEM or RPMI1640 medium supplemented with 10% fetal bovine serum at 37° C. in an atmosphere of 5% CO2. Cells in exponential growth phase were harvested and quantitated by cell counter before tumor inoculation.
EMT-6 syngeneic mouse tumor models were generated by inoculating female BALB/C 6 mice with EMT-6 cancer cells at their right lower flank.
Each mouse was inoculated subcutaneously with tumor cells in 0.1 mL of PBS. Treatments were started when the mean tumor size reached approximately 80-120 mm^3 (around 100 mm^3). The administration of the test compounds and the animal number in each study group are shown in the study design. The date of tumor cell inoculation was denoted as day 0.
ARI-158 and ARI-160 were dissolved in DMSO at the final concentration of 26.7 mg/ml and stored at room temperature.
Randomization of animals was started when the mean tumor size reached approximately 90 mm^3 to form the mouse study groups. The randomization was performed based on “Matched distribution” method using the multi-task method (StudyDirector™ software, version 3.1.399.19)/randomized block design. […]
Tumor volumes were measured twice per week in two dimensions using a caliper, and the volume was expressed in mm^3 using the formula: […]
where V is tumor volume, L is tumor length (the longest tumor dimension) and W is tumor width (the longest tumor dimension perpendicular to L). Dosing as well as tumor and body weight measurements was conducted in a Laminar Flow Cabinet. The body weights and tumor volumes were measured by using StudyDirector™ software (version 3.1.399.19).
Tumor growth inhibition percentage (TGI %) is an indicator for antitumor activity of a drug compound, and expressed as: […]
where T and C are the mean tumor volume (or weight) of the treated and control groups, respectively, on a given day. Statistical analysis of the difference in mean tumor volume (MTV) among the groups was conducted using the data collected on the day when the MTV of the vehicle group reached the humane endpoints, so that TGI could be derived for all or most mice enrolled in the study.

[3] = IV 2 mg/kg ARI-160, Animal_ID 1
[4] = IV 2 mg/kg ARI-160, Animal_ID 2
[5] = IV 2 mg/kg ARI-160, Animal_ID 3
[6] = PO 10 mg/kg ARI-160, Animal_ID 4
[7] = PO 10 mg/kg ARI-160, Animal_ID 5
[8] = PO 10 mg/kg ARI-160, Animal_ID 6

CCC(=O)c1csc(C(=O)c2cn(COP(=O)([O-])[O-])c3cc(F)ccc23)n1.[Na+].[Na+] [ARI-160]
AUCinf [1, 3]: 5.14 µg·h/mL
AUClast [1, 3]: 5.12 µg·h/mL
Cl [1, 3]: 0.389 L/h/kg
Cmax [1, 3]: 16.1 µg/mL
MRTinf [1, 3]: 13.8 min
MRTlast [1, 3]: 12.6 min
Tmax [1, 3]: 4.98 min
T½ [1, 3]: 37.2 min
Vss [1, 3]: 0.0898 L/kg
AUCinf [1, 4]: 3.95 µg·h/mL
AUClast [1, 4]: 3.93 µg·h/mL
Cl [1, 4]: 0.506 L/h/kg
Cmax [1, 4]: 12.1 µg/mL
MRTinf [1, 4]: 15.6 min
MRTlast [1, 4]: 13.8 min
Tmax [1, 4]: 4.98 min
T½ [1, 4]: 51.6 min
Vss [1, 4]: 0.132 L/kg
AUCinf [1, 5]: 8.59 µg·h/mL
AUClast [1, 5]: 8.59 µg·h/mL
Cl [1, 5]: 0.233 L/h/kg
Cmax [1, 5]: 24.6 µg/mL
MRTinf [1, 5]: 10.8 min
MRTlast [1, 5]: 10.8 min
Tmax [1, 5]: 4.98 min
T½ [1, 5]: 54 min
Vss [1, 5]: 0.042 L/kg
AUCinf ([1]; IV 2 mg/kg ARI-160, Mean): 5.89 µg·h/mL
AUClast ([1]; IV 2 mg/kg ARI-160, Mean): 5.88 µg·h/mL
Cl ([1]; IV 2 mg/kg ARI-160, Mean): 0.376 L/h/kg
Cmax ([1]; IV 2 mg/kg ARI-160, Mean): 17.6 µg/mL
MRTinf ([1]; IV 2 mg/kg ARI-160, Mean): 13.2 min
MRTlast ([1]; IV 2 mg/kg ARI-160, Mean): 12.6 min
Tmax ([1]; IV 2 mg/kg ARI-160, Mean): 4.98 min
T½ ([1]; IV 2 mg/kg ARI-160, Mean): 47.4 min
Vss ([1]; IV 2 mg/kg ARI-160, Mean): 0.0878 L/kg
bioavailability ([1]; IV versus oral dosing): better bioavailability with an IV dosing
AUCinf [1, 6]: 0.0233 µg·h/mL
AUClast [1, 6]: 0.0133 µg·h/mL
Cmax [1, 6]: 0.0127 µg/mL
MRTinf [1, 6]: 139 min
MRTlast [1, 6]: 51.8 min
Tmax [1, 6]: 15 min
T½ [1, 6]: 94.8 min
AUCinf [1, 7]: 0.0518 µg·h/mL
AUClast [1, 7]: 0.0321 µg·h/mL
Cmax [1, 7]: 0.0101 µg/mL
MRTinf [1, 7]: 505 min
MRTlast [1, 7]: 195 min
Tmax [1, 7]: 15 min
T½ [1, 7]: 368 min
AUCinf [1, 8]: 0.0225 µg·h/mL
AUClast [1, 8]: 0.011 µg·h/mL
Cmax [1, 8]: 0.00675 µg/mL
MRTinf [1, 8]: 574 min
MRTlast [1, 8]: 121 min
Tmax [1, 8]: 15 min
T½ [1, 8]: 364 min
AUCinf ([1]; PO 10 mg/kg ARI-160, Mean): 0.0325 µg·h/mL
AUClast ([1]; PO 10 mg/kg ARI-160, Mean): 0.0188 µg·h/mL
Cmax ([1]; PO 10 mg/kg ARI-160, Mean): 0.00985 µg/mL
F. ([1]; PO 10 mg/kg ARI-160, Mean): 0.110%
MRTinf ([1]; PO 10 mg/kg ARI-160, Mean): 406 min
MRTlast ([1]; PO 10 mg/kg ARI-160, Mean): 122 min
Tmax ([1]; PO 10 mg/kg ARI-160, Mean): 15 min
T½ ([1]; PO 10 mg/kg ARI-160, Mean): 275 min
provision of ARI-143 ([1]; after administration of ARI-160): provided ARI-143 after oral as well as IV administration
TGI ([2]; study day 6): 0.01%
TGI ([2]; study day 10): 30.95%
TGI ([2]; study day 13): 30.58%
TGI ([2]; study day 17): 20.47%
TGI ([2]; study day 20): 32.25%
TGI ([2]; study day 24): 33.19%
TGI ([2]; study day 27): 22.24%
TGI ([2]; study day 31): 12.40%
